# “And” between values parts separate entries of the source, which are not always exact repeats. Equal entries are not always repeated. Non-standard residues stand in square brackets, D forms with d. No end group written: not given here. sY = N[C@@H](Cc1ccc(OS(=O)(=O)O)cc1)C(=O)O
# Assays:
# [1] = system: reactive oxygen species (ROS) production in corn tissue; assay: ROS activity assay in corn tissue (luminol/horseradish peroxidase, RLU)
# [2] = system: reactive oxygen species (ROS) production in soybean leaf tissue; assay: ROS activity assay in soybean leaf tissue (luminol/horseradish peroxidase, RLU); assay type: cell-based; conditions: for Description of ROS activity results (soybean): observed
# corn [3] = assay: Seed treatment of corn, field yield trials; assay type: in vivo
# soybean [4] = assay: Seed treatment of soybean, field yield trials; assay type: in vivo
# corn [5] = assay: Foliar application to corn in growth room, plant height (non-stress, heat and water deficit stress); conditions: for growth phenotype vs control: foliar (HpaG-like 1 μM, PSKα)
# soybean [6] = assay: Foliar application to soybean, field yield trials; assay type: in vivo; conditions: 11 locations
# corn [7] = assay type: in vivo; conditions: foliar 0.33 Fl. oz/Ac, V5-V8, first year trials, 10 locations
# [8] = Table 33, RLU relative to native Bt.4Q7Flg22 = 100
# [9] = Table 35, single polypeptides and combinations, Bt.4Q7Flg22 = 100
# [10] = seed treatment on base ST, polypeptide 1.0 μM (cellobiose 1 mM where combined)
# [11] = mutant versus native Bt.4Q7Flg22
# [12] = mutant versus native Bt.4Q7Flg22, *(predicted)
substance,measurement,setting,value
NRLSSGKRINSAADDAAGLAIA [SEQ ID NO: 295],Avg. Activity (%) Corn (5828 YX) 5 nM polypeptide,[1]; [8],134.7%
same,Avg. Activity (%) Corn (5828 YX) 5 nM polypeptide,[1]; [9],142.53%
same,Avg. Activity (%) Soybean (297 R4) 100 nM polypeptide,[2]; [8],83.0%
same,Avg. Activity (%) Soybean (297 R4) 100 nM polypeptide,[2]; [9],97.59%
GKLSSGLRINGASDDAAGLAIS (listed as Paenibacillus sp.) [Pa.Flg22],Avg. Activity (%) Corn (5828 YX) 5 nM polypeptide,[1]; [8],116.0%
same,Avg. Activity (%) Soybean (297 R4) 100 nM polypeptide,[2]; [8],88.6%
same,yield gain vs base seed treatment only,"corn [3]; 1 uM in slurry, 3 hybrids, 8 locations",3.57 Bu/Ac
same,Average Yield Bu/Ac,"corn [3]; seed treatment on base ST, BECK's 5828YX, 1 location, four replicated trials, polypeptide 1.0 μM (cellobiose 1 mM where combined)",39.04 Bu/Ac
same,Average Change in Bu/Ac compared to Untreated Control,"corn [3]; seed treatment on base ST, BECK's 5828YX, polypeptide 1.0 μM (cellobiose 1 mM where combined)",+11.04 Bu/Ac
same,Average Yield Bu/Ac,"soybean [4]; seed treatment on base ST, 1 variety, 1 location, four replicate plots, polypeptide 1.0 μM (cellobiose 1 mM where combined)",41.39 Bu/Ac
same,Average Change in Bu/Ac compared to Untreated Control,soybean [4]; [10],+0.28 Bu/Ac
Bp.Flg22 (TRLSSGKRINSAADDAAGLAIS),Avg. Activity (%) Corn (5828 YX) 5 nM polypeptide,[1]; [8],111.2%
same,Avg. Activity (%) Soybean (297 R4) 100 nM polypeptide,[2]; [8],67.2%
LRLSSGYRINSAADDAAGLAIS (listed as Lysinibacillus sp.) [SEQ ID NO: 291],Avg. Activity (%) Corn (5828 YX) 5 nM polypeptide,[1]; [8],26.6%
same,Avg. Activity (%) Soybean (297 R4) 100 nM polypeptide,[2]; [8],64.1%
P spp.Flg22-B6 (GKLSSGLRINGASDDAAGLAIS),Avg. Activity (%) Corn (5828 YX) 5 nM polypeptide,[1]; [8],135.3%
same,Avg. Activity (%) Corn (5828 YX) 5 nM polypeptide,[1]; [9],103.61%
same,Avg. Activity (%) Soybean (297 R4) 100 nM polypeptide,[2]; [8],112.5%
same,Avg. Activity (%) Soybean (297 R4) 100 nM polypeptide,[2]; [9],132.95%
NRLSSGKRINTAADDAAGLAIS (listed as Burkholderia ubonensis) [SEQ ID NO: 538],Avg. Activity (%) Corn (5828 YX) 5 nM polypeptide,[1]; [8],92.9%
same,Avg. Activity (%) Soybean (297 R4) 100 nM polypeptide,[2]; [8],91.1%
Bt 4Q7Flg 22 (DRLSSGKRINSASDDAAGLAIA; listed as Bacillus thuringiensis),Δ Height (cm),"corn [5]; corn Beck's 5828 YH, 1 μM foliar, 3 to 5 weeks",5.40 cm
same,Δ Height Normalized as a percentage of control height,"corn [5]; corn Beck's 5828 YH, 1 μM foliar, vs water control",+3.7%
DRLSSGKRINSASDDAAGLQIA (listed as Bacillus thuringiensis) [SEQ ID NO: 572],Description of ROS activity results (corn),"[1]; mutant versus native Bt.4Q7Flg22, observed",A20Q mutation: Negative ROS activation
same,Description of ROS activity results (soybean),[2]; [11],A20Q mutation: Negative ROS activation
DRLSSGKRINNASDDAAGLAIA [SEQ ID NO: 294],Avg. Activity (%) Soybean (297 R4) 100 nM polypeptide,[2]; [8],90.0%
NQGISEKQLDQLLTQLIMALLQQ (Xanthomonas species) [HpaG-like],growth phenotype vs control,corn [5]; heat and water deficit stress,not stressed environments
same,growth phenotype vs control,corn [5]; non-stressed environment,improved growth phenotype in normal environments
DRLSSGKRINSASDDPAGLAIA [Syn05Flg22],% Activity (compared to unmodified Syn05Flg22 (SEQ ID NO: 578)),[1]; corn leaf slices,100.0%
same,Polypeptide Concentration (nM) for 5 × 10^4 total RLU production,"[1]; corn leaf slices, from best-fit regression",19.5 nM
same,% Activity (compared to Syn0Flg22; SEQ ID NO: 578),"[2]; soybean leaf discs, Table 73 data set",100.0%
same,Polypeptide Concentration (nM) for 5 × 10^4 total RLU production,"[2]; soybean leaf discs, from best-fit regression, Table 73 data set",89.8 nM
EKLSSGYKINRASDDAAGLAIS (Lysinibacillus spp.) [SEQ ID NO: 581],Avg. Activity (%) Corn (5828 YX) 5 nM polypeptide,[1]; [8],36.4%
same,Avg. Activity (%) Soybean (297 R4) 100 nM polypeptide,[2]; [8],96.9%
EKLSSGQRINSASDDAAGLAIS (listed as Bacillus aryabhattai) [SEQ ID NO: 289],Avg. Activity (%) Corn (5828 YX) 5 nM polypeptide,[1]; [8],27.1%
same,Avg. Activity (%) Soybean (297 R4) 100 nM polypeptide,[2]; [8],42.2%
EKLSSGFRINRAGDDAAGLAIS (Lysinibacillus macroides) [SEQ ID NO: 584],Avg. Activity (%) Corn (5828 YX) 5 nM polypeptide,"[1]; Table 33, RLU relative to native Bt.4Q7Flg22 = 100, listed as Lm.Flg22-L6",58.7% and 33.7%
A spp.Flg22-B4 (ERLSSGYRINRASDDAAGLAIS),Avg. Activity (%) Corn (5828 YX) 5 nM polypeptide,[1]; [8],78.1%
same,Avg. Activity (%) Corn (5828 YX) 5 nM polypeptide,[1]; [9],53.64%
same,Avg. Activity (%) Soybean (297 R4) 100 nM polypeptide,[2]; [8],133.1%
same,Avg. Activity (%) Soybean (297 R4) 100 nM polypeptide,[2]; [9],106.37%
Syn03Flg22 (QRLSSGKRINSASDDAAGLAIA),Average Change in Bu/Ac compared to Untreated Control,soybean [4]; [10],+2.50 Bu/Ac
NRLSSGKQINSASDDAAGLAIA (listed as Bacillus manliponensis) [SEQ ID NO: 290],Avg. Activity (%) Corn (5828 YX) 5 nM polypeptide,[1]; [8],106.0%
same,Avg. Activity (%) Soybean (297 R4) 100 nM polypeptide,[2]; [8],74.6%
L spp.Flg22-L2 (EKLSSGLRINRAGDDAAGLAIS),Avg. Activity (%) Corn (5828 YX) 5 nM polypeptide,[1]; [8],104.5%
same,Avg. Activity (%) Corn (5828 YX) 5 nM polypeptide,[1]; [9],113.04%
same,Avg. Activity (%) Soybean (297 R4) 100 nM polypeptide,[2]; [8],128.6%
same,Avg. Activity (%) Soybean (297 R4) 100 nM polypeptide,[2]; [9],138.86%
"QRLSSGKRINSASDDAAGLAIA (listed as Bacillus thuringiensis) [Bt.4Q7Flg22-Syn03, Modified FLG22-Bt4Q7 (D1Q)]",ROS activity compared to native Bt.4Q7Flg22,"[1]; 0.25-100 nM, tissue not given",increased ROS activities
same,ROS-inducing activity among tested polypeptides,[1]; corn (5 nM) and soybean (100 nM),strongest ROS-inducing activity
same,Description of ROS activity results (soybean),[2]; [11],D1Q mutation: Strong ROS activation in
LRISSGYRINSAADDPAGLAIS (Lysinibacillus spp.) [SEQ ID NO: 582],Avg. Activity (%) Corn (5828 YX) 5 nM polypeptide,[1]; [8],60.1%
same,Avg. Activity (%) Soybean (297 R4) 100 nM polypeptide,[2]; [8],117.9%
DRLSSGQRINSASDDAAGLAIA [SEQ ID NO: 579],"Description of ROS activity results (corn), predicted",[1]; [12],K7Q mutation: Strong reduction in ROS
same,"Description of ROS activity results (soybean), predicted",[2]; [12],K7Q mutation: Strong reduction in ROS
At. PSKα ([sY]I[sY]TQ; listed as Arabidopsis thaliana),Plant Height (cm) Percentage Change Compared to Control (0.01% surfactant) Stress,"corn [5]; separate replicated trials, stress environment, HpaG-like 1 μM, At. PSKα 100 nM foliar",+6.1%
RI Bt.4Q7Flg22: retro-inverso form of Bt.4Q7Flg22 ([dA][dI][dA][dL]G[dA][dA][dD][dD][dS][dA][dS][dN][dI][dR][dK]G[dS][dS][dL][dR][dD]; listed as Bacillus thuringiensis),win rate,soybean [6]; R2 foliar 0.33 Fl. oz/Ac,64%
same,average yield change vs non-treated control,"soybean [6]; R2 foliar, Flg22 polypeptides 0.33 Fl. oz/Ac, RHPP 4 Fl. oz/Ac",0.90 Bu/Ac
same,average yield increase vs non-treated control,corn [7],11.90 Bu/Ac
same,win rate,corn [7],70%
same,yield advantage,"corn [3]; second study, 12 locations",0.5 Bu/Ac
same,win rate,"soybean [4]; third study, 12 locations",55%
same,yield benefit,"soybean [4]; third study, 12 locations",0.3 Bu/Ac
LRISTGYRINSAADDPAGLAIS (listed as Lysinibacillus fusiformis) [SEQ ID NO: 583],Avg. Activity (%) Corn (5828 YX) 5 nM polypeptide,[1]; [8],59.3%
same,Avg. Activity (%) Soybean (297 R4) 100 nM polypeptide,[2]; [8],111.6%

# Reference: US12268727B2, “Bioactive polypeptides for improvements in plant protection, growth and productivity” (priority 2017, dated 2025)
